US20060062850A1, “Controlled release antimicrobial polymer compositions” (priority 2004, published 2006)

Assays:
L. monocytogenes 15313 [1] = test: spot on lawn assay; type: cell-based
Description: For each concentration of each antimicrobial agent, a spot on lawn assay was conducted as a positive control experiment to assess the efficacy of the antimicrobial solutions. In this assay, Trypticase Soy Agar (TSA) and Modified Oxford Agar (MOX) agar plates were inoculated with L. monocytogenes 15313 at a level of 10E+08 cfu/ml through an Autoplate 4000 model from Spiral Biotech, Inc., of Norwood, Mass. A volumetric pipette pump was then used to place three 10 μl spots of antimicrobial solution onto three well-separated regions of the test plate. Another volumetric pipette pump was used to place 10 μl of a negative control solution (i.e., neat solvent(s)) onto another well-separated region. Three such agar plates were prepared for each concentration of antimicrobial solution. After spot placement, the agar plates were allowed to stand undisturbed for 10 to 30 minutes in a laminar flow hood before incubation at 37° C. for at least 24 hours.
The zone of inhibition resulting from each spot of antimicrobial solution was measured using a dial caliper (available from Brown and Sharpe of North Kingstown, R.I.; accuracy to 0.02 mm). Each zone of inhibition was measured twice, once on each of two perpendicular axes. The values reported in Tables 2 (TSA plates) and 3 (MOX plates) are the average of 18 measurements.

L. monocytogenes 15313 [2] = test: film on lawn assay; type: cell-based; details: incubation at 37 C.
Description: In a film on lawn assay, films of Example 1 and Example 2 were cut into 15 mm by 15 mm samples, placed onto aluminum foil, and exposed to UV light in a laminar flow hood for 4 to 7 minutes. The samples were then transferred from the foil to one of six freshly made up antimicrobial solutions to imbibe for 12 to 24 hours at a specified temperature (4° C. or 37° C.). The films are expected to substantially reach equilibration in less than 12 hours. The films were removed with a pair of flame-sterilized ocular forceps, allowed to drip dry, and held for 60 seconds on a sterile Petri dish before positioning on TSA and MOX agar plates. The agar plates had been prepared as described above with respect to the spot on lawn assay. Two films were placed on each of the prepared agar plates, in well-separated regions. A third 15 mm×15 mm film was imbibed under the same conditions in a negative control solution and placed in another region of the plate. Three plates were prepared in this manner for each concentration of each antimicrobial agent. In the case of the MOX agar plates, a fourth plate was prepared with the same level of innoculum, with no films in it, to serve as a growth indicator plate for color change. After film placement, the plates were allowed to stand undisturbed for 10 to 30 minutes in a laminar flow hood before incubation for at least 24 hours.
Incubation took place at either 4° C. for 14 to 28 days or 37° C. for two to five days. The incubation conditions are noted in the Tables.
The zone of inhibition resulting from each spot of antimicrobial solution was measured as described above, with respect to the spot on lawn assay. The values reported in Tables 5 and 6 are the average of 12 measurements. Occasionally inhibition could be observed on the MOX agar plates, but not easily measured, owing to the relatively diffuse boundaries between areas of inhibition and non-inhibition. In such cases, a qualitative description of the results is provided.

Question: `O=C(O)c1ccccc1` [Benzoic acid] was tested. Which “Group averages of Inhibition Zones, Spot on Lawn Assay” value (L. monocytogenes 15313 [1]; MOX Agar Plates, 0.75 wt % in Ethanol/Water (36/63.25)) did it give?
Answer: Its value is 7.91 mm.

Question: What about the “Group averages of Inhibition Zones, Spot on Lawn Assay” value (L. monocytogenes 15313 [1]; MOX Agar Plates, 1.5 wt % in Ethanol/Water (36/62.5)) of the same molecule?
Answer: The value was 8.66 mm.

Question: And the “Group averages of Inhibition Zones, Spot on Lawn Assay” value (L. monocytogenes 15313 [1]; MOX Agar Plates, 3.0 wt % in Ethanol/Water (36/61))?
Answer: Its value is 8.75 mm.

Question: And the “Group averages of Inhibition Zones, Spot on Lawn Assay” value (L. monocytogenes 15313 [1]; TSA Agar, 0.75 wt % in Ethanol/Water (36/63.25))?
Answer: Its value is 8.13 ± 0.27 mm.

Question: And the “Group averages of Inhibition Zones, Spot on Lawn Assay” value (L. monocytogenes 15313 [1]; TSA Agar, 1.5 wt % in Ethanol/Water (36/62.5))?
Answer: Its value is 8.32 ± 0.69 mm.

Question: And the “Group averages of Inhibition Zones, Spot on Lawn Assay” value (L. monocytogenes 15313 [1]; TSA Agar, 3.0 wt % in Ethanol/Water (36/61))?
Answer: Its value is 8.32 ± 0.53 mm.

Question: And the “Group averages of Inhibition Zones, Film on Lawn Assay Example 1” value (L. monocytogenes 15313 [2]; MOX Agar Plates, Example 1 film soaked at 37 C. in 0.75 wt % solution, Ethanol/Water (36/63.25))?
Answer: The value was 0 (no inhibition) mm.

Question: What about the “Group averages of Inhibition Zones, Film on Lawn Assay Example 1” value (L. monocytogenes 15313 [2]; MOX Agar Plates, Example 1 film soaked at 37 C. in 1.5 wt % solution, Ethanol/Water (36/62.5)) of the same molecule?
Answer: Its value is 24.0 ± 3.34 mm.

Question: What about the “Group averages of Inhibition Zones, Film on Lawn Assay Example 1” value (L. monocytogenes 15313 [2]; MOX Agar Plates, Example 1 film soaked at 37 C. in 3.0 wt % solution, Ethanol/Water (36/61)) of the same molecule?
Answer: The value was 39.52 ± 2.93 mm.

Question: What about the “Group averages of Inhibition Zones, Film on Lawn Assay Example 2” value (L. monocytogenes 15313 [2]; MOX Agar Plates, Example 2 film soaked at 37 C. in 0.75 wt % solution, Ethanol/Water (36/63.25)) of the same molecule?
Answer: The value was 0 (no inhibition) mm.

Question: What about the “Group averages of Inhibition Zones, Film on Lawn Assay Example 2” value (L. monocytogenes 15313 [2]; MOX Agar Plates, Example 2 film soaked at 37 C. in 1.5 wt % solution, Ethanol/Water (36/62.5)) of the same molecule?
Answer: The value was 21.38 ± 3.90 mm.

Question: What about the “Group averages of Inhibition Zones, Film on Lawn Assay Example 2” value (L. monocytogenes 15313 [2]; MOX Agar Plates, Example 2 film soaked at 37 C. in 3.0 wt % solution, Ethanol/Water (36/61)) of the same molecule?
Answer: The value was 32.29 ± 7.53 mm.

Question: What about the “Group averages of Inhibition Zones, Film on Lawn Assay Example 1” value (L. monocytogenes 15313 [2]; TSA Agar, Example 1 film soaked at 37 C. in 0.75 wt % solution, Ethanol/Water (36/63.25)) of the same molecule?
Answer: Its value is 0 (no inhibition) mm.

Question: What about the “Group averages of Inhibition Zones, Film on Lawn Assay Example 1” value (L. monocytogenes 15313 [2]; TSA Agar, Example 1 film soaked at 37 C. in 1.5 wt % solution, Ethanol/Water (36/62.5)) of the same molecule?
Answer: The value was 17.68 ± 1.64 mm.

Question: What about the “Group averages of Inhibition Zones, Film on Lawn Assay Example 1” value (L. monocytogenes 15313 [2]; TSA Agar, Example 1 film soaked at 37 C. in 3.0 wt % solution, Ethanol/Water (36/61)) of the same molecule?
Answer: The value was 20.17 ± 1.19 mm.

Question: And the “Group averages of Inhibition Zones, Film on Lawn Assay Example 2” value (L. monocytogenes 15313 [2]; TSA Agar, Example 2 film soaked at 37 C. in 0.75 wt % solution, Ethanol/Water (36/63.25))?
Answer: Its value is 0 (no inhibition) mm.

Question: What about the “Group averages of Inhibition Zones, Film on Lawn Assay Example 2” value (L. monocytogenes 15313 [2]; TSA Agar, Example 2 film soaked at 37 C. in 1.5 wt % solution, Ethanol/Water (36/62.5)) of the same molecule?
Answer: The value was 18.60 ± 0.61 mm.

Question: And the “Group averages of Inhibition Zones, Film on Lawn Assay Example 2” value (L. monocytogenes 15313 [2]; TSA Agar, Example 2 film soaked at 37 C. in 3.0 wt % solution, Ethanol/Water (36/61))?
Answer: The value was 18.90 ± 1.82 mm.
